Test results as given in US12377071B2, “Methods of treating conditions related to the S1P1 receptor” (Arena Pharmaceuticals, Inc., priority 2015, dated 2025).
Entries after “also recorded” stand apart in the source; their conditions may differ. Counter-ions that a name gives are not always drawn.

Assays:
lymphocytes = assay: Multiple ascending dose study: lymphocyte counts, safety population; type: in vivo, human; details: for Lymphocytes, On Treatment Mean / Lymphocytes, Percent Change from Baseline, Mean / Lymphocytes, Percent Change from Baseline, Median / Lymphocytes, Percent Change from Baseline, Min, Max: day 21
Method: (§1) A randomized, double-blind, placebo-controlled, sequential, ascending, multiple dose study to assess the safety, tolerability, and pharmacokinetics of the L-arginine salt of Compound 1 administered to healthy adult subjects was conducted. This study was designed to evaluate the safety, tolerability, pharmacokinetics, and pharmacodynamics of the L-arginine salt of Compound 1.
(§2) Cohort 1 was dosed with 0.7 mg (by administering two 0.35 mg formulations) for 21 days. Cohort 2 was dosed with 1.35 mg (by administering both a 0.35 mg formulation and a 1 mg formulation) for 21 days. Cohort 3 was dosed with 2.0 mg for 21 days. Cohort 4 was dosed with 0.35 mg for 7 days and then with 2.0 mg for 14 days. Cohort 5 was dosed with 0.5 for 7 days and then with 3.0 mg (by administering both a 1 mg formulation and a 2 mg formulation) for 14 days.

healthy adult subjects [1] = assay: Multiple ascending dose study: safety assessments and adverse events
Method: (§3) The following safety assessments were conducted: physical examinations with ophthalmoscopy, clinical laboratory tests (serum chemistry, coagulation, and urinalysis), vital signs, continuous telemetry (12 lead ECG), safety ECGs, pulmonary function testing (PFT), serum protein electrophoresis (SPEP) and serum immunoelectrophoresis (IEP), and adverse event reporting.

healthy adult subjects [2] = assay: Multiple ascending dose study: QTc, safety population; type: in vivo, human; details: Day 1 to Day 23
Method: as §1, §2, §3

healthy adult subjects [3] = assay: Multiple ascending dose study: diastolic BP, safety population; type: in vivo, human; details: Day 1 to Day 28; 0.35 mg for 7 days then 2.0 mg for 14 days
Method: as §1, §2, §3

[4] = 0.35 mg for 7 days then 2.0 mg for 14 days
[5] = 0.5 mg for 7 days then 3.0 mg for 14 days

O=C(O)C[C@H]1CCc2c1[nH]c1ccc(OCc3ccc(C4CCCC4)c(C(F)(F)F)c3)cc21 [L-arginine salt of Compound 1]
Lymphocytes, On Treatment Mean (lymphocytes; [4]): 0.62 10^3/μl
Lymphocytes, Percent Change from Baseline, Mean (lymphocytes; [4]): −67.34%
Lymphocytes, Percent Change from Baseline, Median (lymphocytes; [4]): −67.54%
Lymphocytes, Percent Change from Baseline, Min, Max (lymphocytes; [4]): −77.27 to −57.14%
Lymphocytes, On Treatment Mean (lymphocytes; [5]): 0.62 10^3/μl
Lymphocytes, Percent Change from Baseline, Mean (lymphocytes; [5]): −66.16%
Lymphocytes, Percent Change from Baseline, Median (lymphocytes; [5]): −65.02%
Lymphocytes, Percent Change from Baseline, Min, Max (lymphocytes; [5]): −85.19 to −53.85%
Lymphocytes, On Treatment Mean (lymphocytes; 0.7 mg for 21 days): 1.06 10^3/μl
Lymphocytes, Percent Change from Baseline, Mean (lymphocytes; 0.7 mg for 21 days): −41.03%
Lymphocytes, Percent Change from Baseline, Median (lymphocytes; 0.7 mg for 21 days): −40.37%
Lymphocytes, Percent Change from Baseline, Min, Max (lymphocytes; 0.7 mg for 21 days): −55.56 to −23.08%
Lymphocytes, On Treatment Mean (lymphocytes; 1.35 mg for 21 days): 0.89 10^3/μl
Lymphocytes, Percent Change from Baseline, Mean (lymphocytes; 1.35 mg for 21 days): −53.43%
Lymphocytes, Percent Change from Baseline, Median (lymphocytes; 1.35 mg for 21 days): −51.85%
Lymphocytes, Percent Change from Baseline, Min, Max (lymphocytes; 1.35 mg for 21 days): −68.75 to −30.77%
Lymphocytes, On Treatment Mean (lymphocytes; 2.0 mg for 21 days): 0.62 10^3/μl
Lymphocytes, Percent Change from Baseline, Mean (lymphocytes; 2.0 mg for 21 days): −68.81%
Lymphocytes, Percent Change from Baseline, Median (lymphocytes; 2.0 mg for 21 days): −69.44%
Lymphocytes, Percent Change from Baseline, Min, Max (lymphocytes; 2.0 mg for 21 days): −80.00 to −55.56%
Lymphocyte lowering, dose dependence (lymphocytes; multiple dose, 0.7 to 3.0 mg): dose-dependent effect on lymphocyte lowering with maximal effect at 2 mg dose
Subjects with mildly abnormal reproducible (NCS) pulmonary function test findings (FEV1 below 80%, FVC) post-dose (healthy adult subjects [1]; 1.35 mg dose): One
Subjects with mildly abnormal non-clinically significant post-treatment liver function tests (elevated ALT & AST <2× ULN) (healthy adult subjects [1]; 2mg group): 1 subject
Subjects with new 1st degree atrioventricular block (healthy adult subjects [1]; 2mg group): 1 subject
Subjects with new 1st degree atrioventricular block (healthy adult subjects [1]; 0.5, 3 mg group): 1 subject
Subjects with mildly abnormal non-clinically significant post-treatment liver function tests (elevated ALT & AST <2× ULN) (healthy adult subjects [1]; 0.5 escalating to 3 mg group): 1 subject
Discontinuation due to an adverse event (healthy adult subjects [1]; multiple dose): No subjects were discontinued due to an adverse event
Most common adverse events (healthy adult subjects [1]; multiple dose): contact dermatitis and leukopenia, followed by constipation, diarrhea, nausea, and abdominal pain
Ophthalmoscopy findings (healthy adult subjects [1]; multiple dose): No clinically significant change from baseline
Severity of adverse events (healthy adult subjects [1]; multiple dose): majority of adverse events were mild
Vital signs, ECGs, PFTs, ophthalmoscopy, clinical laboratory tests (healthy adult subjects [1]; multiple dose): no other clinically significant safety issues
SAEs or deaths (healthy adult subjects [1]; multiple dose, all dose levels): No SAEs or deaths
Second degree heart block (healthy adult subjects [1]; multiple dose, all dose levels): No second degree heart block
Tolerability (healthy adult subjects [1]; multiple dose, all dose levels (0.7 to 3.0 mg, 21 days)): tolerated at all dose levels; also recorded: well tolerated at all doses tested
Maximum Value for Post-dose QTc, Change from Baseline, Mean (healthy adult subjects [2]; [4]): −0.10 MS
Maximum Value for Post-dose QTc, Change from Baseline, Median (healthy adult subjects [2]; [4]): 0.50 MS
Maximum Value for Post-dose QTc, Change from Baseline, Min, Max (healthy adult subjects [2]; [4]): −19.00 to 17.00 MS
Maximum Value for Post-dose QTc, On Treatment Mean (healthy adult subjects [2]; [4]): 411.10 MS
Maximum Value for Post-dose QTc, Change from Baseline, Mean (healthy adult subjects [2]; [5]): 5.60 MS
Maximum Value for Post-dose QTc, Change from Baseline, Median (healthy adult subjects [2]; [5]): 5.00 MS
Maximum Value for Post-dose QTc, Change from Baseline, Min, Max (healthy adult subjects [2]; [5]): −5.00 to 15.00 MS
Maximum Value for Post-dose QTc, On Treatment Mean (healthy adult subjects [2]; [5]): 425.10 MS
Maximum Value for Post-dose QTc, Change from Baseline, Mean (healthy adult subjects [2]; 0.7 mg for 21 days): 3.60 MS
Maximum Value for Post-dose QTc, Change from Baseline, Median (healthy adult subjects [2]; 0.7 mg for 21 days): 3.50 MS
Maximum Value for Post-dose QTc, Change from Baseline, Min, Max (healthy adult subjects [2]; 0.7 mg for 21 days): −8.00 to 16.00 MS
Maximum Value for Post-dose QTc, On Treatment Mean (healthy adult subjects [2]; 0.7 mg for 21 days): 418.40 MS
Maximum Value for Post-dose QTc, Change from Baseline, Mean (healthy adult subjects [2]; 1.35 mg for 21 days): 8.20 MS
Maximum Value for Post-dose QTc, Change from Baseline, Median (healthy adult subjects [2]; 1.35 mg for 21 days): 6.00 MS
Maximum Value for Post-dose QTc, Change from Baseline, Min, Max (healthy adult subjects [2]; 1.35 mg for 21 days): −5.00 to 25.00 MS
Maximum Value for Post-dose QTc, On Treatment Mean (healthy adult subjects [2]; 1.35 mg for 21 days): 423.60 MS
Maximum Value for Post-dose QTc, Change from Baseline, Mean (healthy adult subjects [2]; 2.0 mg for 21 days): 4.00 MS
Maximum Value for Post-dose QTc, Change from Baseline, Median (healthy adult subjects [2]; 2.0 mg for 21 days): 4.50 MS
Maximum Value for Post-dose QTc, Change from Baseline, Min, Max (healthy adult subjects [2]; 2.0 mg for 21 days): −8.00 to 13.00 MS
Maximum Value for Post-dose QTc, On Treatment Mean (healthy adult subjects [2]; 2.0 mg for 21 days): 421.20 MS
Minimum Value for Post-dose Diastolic BP, Change from Baseline, Mean (healthy adult subjects [3]): −7.90 mmHg
Minimum Value for Post-dose Diastolic BP, Change from Baseline, Median (healthy adult subjects [3]): −6.00 mmHg
Minimum Value for Post-dose Diastolic BP, Change from Baseline, Min, Max (healthy adult subjects [3]): −19.00 to −1.00 mmHg
